Each structure is given as a SMILES string. Where a name gives a salt, the structure may show the parent alone.

Usually EC50 stands for the concentration needed to bring the measured effect to its halfway point.

This assay concerns the target T1, Zinc finger protein mex-5 (Caenorhabditis elegans, UniProt Q9XUB2).
T1 sequence (Q9XUB2 whole entry): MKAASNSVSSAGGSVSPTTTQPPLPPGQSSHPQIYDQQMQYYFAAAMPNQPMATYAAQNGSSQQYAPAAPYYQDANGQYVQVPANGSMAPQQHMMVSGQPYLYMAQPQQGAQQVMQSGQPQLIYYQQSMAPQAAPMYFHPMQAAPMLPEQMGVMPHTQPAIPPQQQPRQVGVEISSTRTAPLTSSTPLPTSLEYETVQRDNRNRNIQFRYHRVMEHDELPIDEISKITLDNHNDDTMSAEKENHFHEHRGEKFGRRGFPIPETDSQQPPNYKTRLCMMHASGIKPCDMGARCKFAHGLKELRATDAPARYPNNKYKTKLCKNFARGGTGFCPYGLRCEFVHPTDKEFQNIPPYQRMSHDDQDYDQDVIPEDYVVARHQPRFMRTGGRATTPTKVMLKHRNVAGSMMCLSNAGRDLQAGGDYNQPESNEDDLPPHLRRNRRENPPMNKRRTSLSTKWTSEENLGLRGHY
Put plainly: potency of MEX-5 RNA-binding blockers – biochemical, C. elegans, fluorescence polarization, dose response (AID 1960).
In turn, `N#CC(C(=O)c1cc2ccccc2o1)c1nc2ccccc2s1` (stereo not given) [(2Z)-3-(1-benzofuran-2-yl)-2-(3H-1,3-benzothiazol-2-ylidene)-3-oxidanylidene-propanenitrile] had an EC50 greater than 300 µM.
`C=c1cc(O)c(CN(C)C)c2oc(=Cc3ccco3)c(O)c12` [(2Z)-7-[(dimethylamino)methyl]-2-(furan-2-ylmethylidene)-6-hydroxy-4-methyl-1-benzofuran-3-one] had an EC50 of 39.8 µM. That is a double-digit micromolar value.
For `C[C@H]1c2cccc(O)c2C(=O)C2C(=O)[C@]3(O)C(=O)C(C(N)=O)C(=O)[C@@H](N(C)C)C3C(O)C21` (stereo partly drawn) [(2Z,4S,5S,6R,12aS)-2-[amino(hydroxy)methylidene]-4-(dimethylamino)-5,10,11,12a-tetrahydroxy-6-methyl-4a,5,5a,6-tetrahydro-4H-tetracene-1,3,12-trione;ethanol;hydrate;hydrochloride] the value was 45.3 µM.
For `Cn1c2cc(=N)ccc-2c2ccc(N)cc2c1-c1ccccc1` [(3-amino-5-methyl-6-phenyl-phenanthridin-5-ium-8-yl)amine;bromide] the value was 5.36 µM; for `O=C1N=c2ccccc2=C1NNc1cccc(Cl)c1` [(3E)-1H-indole-2,3-dione 3-[(3-chlorophenyl)hydrazone]], 45.4 µM; for `Cc1ccc2oc(=O)c(CC(=O)CC(C)C)nc2c1` [(3Z)-3-(2-keto-4-methyl-pentylidene)-6-methyl-4H-1,4-benzoxazin-2-one], greater than 300 µM.
`COc1ccc(C(=O)CC2=NCC3c4ccccc4CCN3C2=O)cc1` (stereo not given) [(3Z)-3-[2-(4-methoxyphenyl)-2-oxidanylidene-ethylidene]-2,6,7,11b-tetrahydro-1H-pyrazino[2,1-a]isoquinolin-4-one] had an EC50 greater than 300 µM.
For `Cc1ccc(C(=O)Cc2nc3ccccc3oc2=O)cc1` [(3Z)-3-[2-(4-methylphenyl)-2-oxidanylidene-ethylidene]-4H-1,4-benzoxazin-2-one] the value was greater than 300 µM; for `Cc1ccc2oc(=O)c(CC(=O)c3cccs3)nc2c1` [(3Z)-3-[2-keto-2-(2-thienyl)ethylidene]-6-methyl-4H-1,4-benzoxazin-2-one], 6.82 µM.
The compound `Cc1ccc(C(=O)Cc2nc3cc(C)ccc3oc2=O)cc1` [(3Z)-3-[2-keto-2-(p-tolyl)ethylidene]-6-methyl-4H-1,4-benzoxazin-2-one] registered an EC50 of 1.64 µM.
For `Cc1ccc(NC=C2SC(=O)c3ccccc32)c(C)c1` [(3Z)-3-[(2,4-dimethylanilino)methylene]isobenzothiophen-1-one] the value was greater than 300 µM.
For `O=C(Cc1nc2ccccc2n(-c2ccccc2)c1=O)c1ccccc1` [(3Z)-3-phenacylidene-1-phenyl-4H-quinoxalin-2-one] the value was 6.1 µM.
For the compound `O=C(Cc1nc2cc(Cl)ccc2oc1=O)c1cccs1` [(3Z)-6-chloranyl-3-(2-oxidanylidene-2-thiophen-2-yl-ethylidene)-4H-1,4-benzoxazin-2-one], the EC50 was determined as 153 µM. This EC50 lies about 25-fold higher than the previous one.
For `O=C(Cc1nc2cc(Cl)ccc2oc1=O)c1ccco1` [(3Z)-6-chloranyl-3-[2-(furan-2-yl)-2-oxidanylidene-ethylidene]-4H-1,4-benzoxazin-2-one] the value was greater than 300 µM; for `CN=c1scc(C)n1N=Cc1ccc(O)c(O)c1O` [(4E)-2,3-dihydroxy-4-[[(4-methyl-2-methylimino-1,3-thiazol-3-yl)amino]methylidene]cyclohexa-2,5-dien-1-one], 67.1 µM.
`Cc1c(NC=C2C(=O)N(C)C(=O)c3ccccc32)c(=O)n(-c2ccccc2)n1C` [(4E)-4-[[(1,5-dimethyl-3-oxo-2-phenyl-4-pyrazolyl)amino]methylidene]-2-methylisoquinoline-1,3-dione] registered an EC50 greater than 300 µM.
For `Cc1nnc(SC(C(=O)O)=C2C(=O)Nc3ccccc32)[nH]1` [(5-Methyl-4H-[1,2,4]triazol-3-ylsulfanyl)-[2-oxo-1,2-dihydro-indol-(3E)-ylidene]-acetic acid] the value was 25.2 µM; for `COc1ccc(OC)c(N2C(=O)NC(=O)C(=Cc3c[nH]c4ccccc34)C2=O)c1` [(5E)-1-(2,5-dimethoxyphenyl)-5-(1H-indol-3-ylmethylene)pyrimidine-2,4,6(1H,3H,5H)-trione], greater than 300 µM.
`O=C1NC(=O)N(Cc2ccccc2Cl)C(=O)C1=CNc1ccc(F)cc1` [(5E)-1-(2-chlorobenzyl)-5-[(4-fluoroanilino)methylene]barbituric acid] came in with an EC50 greater than 300 µM.
`Cc1c(NC=C2C(=O)NC(=O)N(Cc3ccco3)C2=O)c(=O)n(-c2ccccc2)n1C` [(5E)-1-(2-furfuryl)-5-[[(3-keto-1,5-dimethyl-2-phenyl-3-pyrazolin-4-yl)amino]methylene]barbituric acid]: the EC50 is greater than 300 µM.
For `C=c1c(C(=O)OC)c(O)c(=Cc2cccs2)n1-c1ccc(Cl)cc1` [(5E)-1-(4-chlorophenyl)-2-methyl-4-oxo-5-(thiophen-2-ylmethylidene)-3-pyrrolecarboxylic acid methyl ester] the value was greater than 300 µM; for `Cc1cc(C=C2C(=O)NC(=O)N(c3ccc(Cl)cc3)C2=O)c(C)n1C` [(5E)-1-(4-chlorophenyl)-5-[(1,2,5-trimethyl-3-pyrrolyl)methylidene]-1,3-diazinane-2,4,6-trione], 47.7 µM; for `CCOc1ccc(N2C(=O)NC(=O)C(=Cc3c[nH]c4ccccc34)C2=O)cc1` [(5E)-1-(4-ethoxyphenyl)-5-(1H-indol-3-ylmethylidene)-1,3-diazinane-2,4,6-trione], 47 µM.
In turn, `O=C1NC(=O)N(CCc2ccc(F)cc2)C(=O)C1=CNCCCn1ccnc1` [(5E)-1-[2-(4-fluorophenyl)ethyl]-5-[(3-imidazol-1-ylpropylamino)methylene]barbituric acid] returned an EC50 greater than 300 µM.
For `C=CCN1C(=O)NC(=O)C(=CNc2ccc(N(CC)CC)cc2)C1=O` [(5E)-1-allyl-5-[[4-(diethylamino)anilino]methylene]barbituric acid] the value was 113 µM.
For `CCN(CC)c1ccc(NC=C2C(=O)NC(=O)N(Cc3ccccc3)C2=O)cc1` [(5E)-1-benzyl-5-[[4-(diethylamino)anilino]methylene]barbituric acid] the value was greater than 300 µM; for `O=C1NC(=O)N(Cc2ccccc2)C(=O)C1=CNc1ccc(CN2CCOCC2)cc1` [(5E)-1-benzyl-5-[[4-(morpholin-4-ylmethyl)anilino]methylidene]-1,3-diazinane-2,4,6-trione], greater than 300 µM.
The compound `Cc1c(NC=C2C(=O)NC(=O)N(Cc3ccccc3)C2=O)c(=O)n(-c2ccccc2)n1C` [(5E)-1-benzyl-5-[[(1,5-dimethyl-3-oxo-2-phenylpyrazol-4-yl)amino]methylidene]-1,3-diazinane-2,4,6-trione] had an EC50 greater than 300 µM.
For `CCCCCCN1C(=O)NC(=O)C(=CNCCCn2ccnc2)C1=O` [(5E)-1-hexyl-5-[[3-(1-imidazolyl)propylamino]methylidene]-1,3-diazinane-2,4,6-trione] the value was greater than 300 µM.
For `O=C1NC(=S)N(c2ccccc2)C(=O)C1=Cc1ccco1` [(5E)-5-(2-furanylmethylidene)-1-phenyl-2-sulfanylidene-1,3-diazinane-4,6-dione] the value was 254 µM; for `O=C1NC(=O)N(CCc2ccccc2)C(=O)C1=CNCCCn1ccnc1` [(5E)-5-[(3-imidazol-1-ylpropylamino)methylene]-1-phenethyl-barbituric acid], greater than 300 µM; for `COc1ccc(N2C(=O)NC(=O)C(=Cc3c[nH]c4ccc(Br)cc34)C2=O)c(OC)c1` [(5E)-5-[(5-bromo-1H-indol-3-yl)methylene]-1-(2,4-dimethoxyphenyl)pyrimidine-2,4,6(1H,3H,5H)-trione], greater than 300 µM.
For `CCN(CC)CCNC=C1C(=O)NC(=O)N(CCc2ccccc2)C1=O` [(5E)-5-[[2-(diethylamino)ethylamino]methylene]-1-phenethyl-barbituric acid] the value was greater than 300 µM; for `CN(C)CCCNC=C1C(=O)NC(=O)N(CCc2ccc(F)cc2)C1=O` [(5E)-5-[[3-(dimethylamino)propylamino]methylene]-1-[2-(4-fluorophenyl)ethyl]barbituric acid], greater than 300 µM; for `CN(C)c1ccc(NC=C2C(=O)NC(=O)N(CCC3=CCCCC3)C2=O)cc1` [(5Z)-1-[2-(cyclohexen-1-yl)ethyl]-5-[[[4-(dimethylamino)phenyl]amino]methylidene]-1,3-diazinane-2,4,6-trione], greater than 300 µM.
With `CCN(CC)CCNC=C1C(=O)NC(=O)N(Cc2ccccc2)C1=O` [(5Z)-1-benzyl-5-[[2-(diethylamino)ethylamino]methylene]barbituric acid], the EC50 is greater than 300 µM.
Compound `CCOC(=O)C1C(=O)C(=Cc2cn(CC(=O)N3CCCC3)c3ccccc23)S/C1=N\c1ccccc1` (stereo not given) [(5Z)-2-anilino-4-keto-5-[[1-(2-keto-2-pyrrolidino-ethyl)indol-3-yl]methylene]thiophene-3-carboxylic acid ethyl ester] had an EC50 of 26.2 µM.
In turn, `C/N=C1/S/C(=C\c2ccc(N3CCCC3)c(F)c2)C(=O)N1C` [(5Z)-5-(3-fluoro-4-pyrrolidino-benzylidene)-3-methyl-2-methylimino-thiazolidin-4-one] yielded a concentration giving a half-maximal response (EC50) of 8.89 µM.
`CC1=C(C#N)C(=O)N(C)C(=O)C1=CN` [(5Z)-5-(aminomethylidene)-1,4-dimethyl-2,6-dioxopyridine-3-carbonitrile] registered an EC50 greater than 300 µM.
Turning to `C=CCN1C(=O)NC(=O)C(=CCC=Nc2ccccc2)C1=O` [(5Z)-5-[(E)-3-phenylazanylprop-2-enylidene]-1-prop-2-enyl-1,3-diazinane-2,4,6-trione], the half-maximal effective concentration (EC50) was greater than 300 µM.

The values above are taken from BindingDB's records for doi:10.7270/Q2D798VP (Broad Institute, 2009).
